According to patent US12144786B2 (priority 2020, dated 2024):
Ends that are not written are not given here.

Columns and labels:
[1] = test system: patients; conditions: usually; rarely longer than 2 hours; cited from earlier work
[2] = 10 4-hour infusions of up to 20 mg/hour; cited from earlier work
[3] = test system: patients with eating disorders; conditions: 10-hour infusions of 20 mg/hour; cited from earlier work
[4] = test system: patients treated for depression; conditions: 6630 patients, six or more repeated parenteral infusions for depression; cited from earlier work
[5] = test system: chronic anorexia nervosa; assay: Case study: ketogenic diet followed by IV ketamine infusions in a patient with chronic anorexia nervosa; type: in vivo, human
[6] = test system: healthy volunteers; conditions: 80-minute infusion of 0.4 or 0.8 mg/kg, 3 days later; cited from earlier work
[7] = up to 4 doses of 0.1-0.5 mg/kg IV over 2 weeks, 8-month follow-up; cited from earlier work
[8] = in vivo; cited from earlier work
[9] = in vivo; cited from earlier work; remark: listed apart in the source
[10] = test system: animal models of brain injury and stroke; conditions: cited from earlier work
[11] = in vivo; cited from earlier work; remark: listed apart in the source
[12] = test system: rodent models of depression; conditions: cited from earlier work
[13] = in vivo, cited from earlier work

Compound: CNC1(c2ccccc2Cl)CCCCC1=O (racemic) [ketamine, (RS)-2-(2-chlorophenyl)-2-(methylamino)cyclohexanone]
- duration of dissociative symptoms [1]: less than 60 minutes
- patients experiencing restlessness, headaches, or significant heart rate increases [2]: 7-13%
- side effects (headache, nausea, sedation, revival of distant memories) [3]: no longer occurred after the first infusion or were no longer seen as unpleasant
- patients with a side effect that led to discontinuation of treatment [4]: 0.7%
- onset of effect on anorexic thoughts (AN voice) after first infusion ([5]; 40-minute IV infusion 0.75 mg/kg (42.68 mg) after 3 months on ketogenic diet, moderate ketosis for 14 days): Within one hour, they felt the AN voice was weakening
- anorexia symptoms by the end of treatment ([5]; four infusions over 15 days (0.75, 1.0, 1.1, 1.2 mg/kg) on ketogenic diet): they no longer felt anorexic any more
- compulsive exercise by the end of treatment ([5]; four infusions over 15 days on ketogenic diet): They could exercise and stop exercising at their own wish
- BMI ([5]; throughout the treatment (duration 15 days) and months after): ~20.8
- residual effects [6]: does not result in any residual effects
- adverse events [7]: no adverse events

Compound: N[C@@]1(c2ccccc2Cl)CCC[C@@H](O)C1=O [(2R,6R)-HNK]
- hypnotic effect [8]: non-hypnotic
- role in antidepressant effects of ketamine [8]: essential for the antidepressant effects of ketamine

Compound: CN[C@@]1(c2ccccc2Cl)CCCCC1=O [(R)-ketamine]
- antidepressant effects and psychotomimetic side effects [9]: rapid-onset and sustained antidepressant effects without psychotomimetic side effects

Compound: C[C@@H]([C@@H](O)c1ccc(O)cc1)N1CCC(O)(c2ccccc2)CC1 [CP-101,606]
- protection [10]: protective

Compound: Cc1ncc2n1-c1ccc(Cl)cc1C(c1ccccc1F)=NC2 [Midazolam]
- half-life (t½) [11]: 2.5 h

Compound: C[C@@H](CN1CCC(Cc2ccccc2)CC1)[C@@H](O)c1ccc(O)cc1 [Ro 25-6981]
- antidepressant actions [12]: rapid antidepressant actions

Compound: Thr-Pro-Pro-Thr-NH2 (TPPT-NH2) [Rapastinel, amidated tetrapeptide, NMDA receptor glycine site partial agonist]
- oral activity ([13]; po): not active orally
- blood brain barrier crossing [13]: rapidly crosses the blood brain barrier
